Measured values from US12029744B2, “Bicyclic heteroaryl derivatives as ectonucleotide pyrophosphatase phosphodiesterase 1 inhibitors” (Riboscience LLC, priority 2019, dated 2024).

Legend:
HGS tumor model = experiment: Anti-tumor activity in HGS tumor model; assay type: in vivo; settings: animals treated with 20/kg of compound, day 42 after inoculation (vehicle group 645)
Excerpt: […]

ENPP1 = target: T1, ENPP1 (Homo sapiens, UniProt P22413); experiment: Measurement of pNP-TMP hydrolysis by ENPP1 (enzyme activity assay, absorbance at 405 nm); assay type: biochemical; settings: substrate pNP-TMP 500 μM, KM 232 μM; Ki from IC50 by Cheng-Prusoff; read-out: Ki (pNP-TMP)
T1 sequence (P22413 1-925): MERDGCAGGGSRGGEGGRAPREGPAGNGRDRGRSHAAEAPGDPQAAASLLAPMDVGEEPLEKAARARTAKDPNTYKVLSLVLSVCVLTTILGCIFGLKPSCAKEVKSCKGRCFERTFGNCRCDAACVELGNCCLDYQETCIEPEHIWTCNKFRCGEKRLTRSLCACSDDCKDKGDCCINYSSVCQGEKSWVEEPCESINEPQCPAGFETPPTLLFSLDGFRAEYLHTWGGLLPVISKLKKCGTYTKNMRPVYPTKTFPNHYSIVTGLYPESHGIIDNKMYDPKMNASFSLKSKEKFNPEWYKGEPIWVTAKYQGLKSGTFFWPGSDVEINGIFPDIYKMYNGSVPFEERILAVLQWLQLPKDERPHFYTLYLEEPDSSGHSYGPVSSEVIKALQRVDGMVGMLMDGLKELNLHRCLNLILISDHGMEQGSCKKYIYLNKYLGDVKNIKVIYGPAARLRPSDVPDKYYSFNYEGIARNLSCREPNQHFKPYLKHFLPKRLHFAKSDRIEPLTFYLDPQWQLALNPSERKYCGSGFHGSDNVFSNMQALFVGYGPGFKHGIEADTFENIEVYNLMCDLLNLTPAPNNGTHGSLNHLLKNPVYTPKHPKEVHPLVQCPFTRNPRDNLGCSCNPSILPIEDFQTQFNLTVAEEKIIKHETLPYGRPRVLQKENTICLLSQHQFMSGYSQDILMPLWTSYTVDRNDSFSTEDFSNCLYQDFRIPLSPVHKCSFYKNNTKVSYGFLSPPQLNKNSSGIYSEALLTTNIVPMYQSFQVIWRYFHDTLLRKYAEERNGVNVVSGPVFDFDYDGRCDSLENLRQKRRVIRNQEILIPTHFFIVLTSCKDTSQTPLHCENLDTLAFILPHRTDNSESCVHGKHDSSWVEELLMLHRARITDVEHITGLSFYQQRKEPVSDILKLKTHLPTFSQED
Description: Measurement of pNP-TMP Hydrolysis by ENPP1
p-Nitrophenyl thymidine 5′-monophosphate (pNP-TMP) is a synthesized substrate for ENPP1. The ENPP1 enzyme activity assay with pNP-TMP substrate was conducted as follows:
Incubation of ENPP1 with compounds was set at 25° C. for 10 min. […] For each compound dilution, wells with assay buffer (50 mM Tris-HCl, pH8.8, 250 mM NaCl, 0.1 mg/ml BSA, 1% DMSO) only but no ENPP1 were included as controls for subtraction of test compound derived absorbance at 405 nm.
Absorbance at 405 nm was recorded immediately in kinetic mode by PerkinElmer 2300 Enspire multimode plate reader.
For each inhibitor, the specific ENPP1 activity was calculated using the following equation: ENPP1 activity (pmol/min/μg)=Adjusted Vmax (OD405 nm/min)×conversion factor (pmol/OD405 nm)/amount of enzyme (μg)
Adjusted Vmax=V0×(Km+(S))/(S).
V0=(OD405 nm with ENPP1−OD405 nm ENPP1 blank)/minutes. OD405 nm was plotted, with blank subtracted, against time (minutes), the initial linear rate is V0. […]
The slope is the conversion factor. The percent ENPP1 activity for each sample was calculated using the following equation: % enzyme activity=sample enzyme activity/MAX Activity×100%.
To determine the IC50 for each compound, compound concentration values and percent enzyme activity values were inserted into GraphPad Prism (GraphPad Prism version 7.0 for Windows, GraphPad Software, La Jolla California USA, www.graphpad.com), and Prism's Transform analysis was used to convert the x-axis values (compound concentration) to logarithms. A sigmoidal variable slope nonlinear regression analysis was performed using the following equation: Y=Bottom+(Top−Bottom)/(1+10^[…])).

| Compound | Ki (ENPP1) [nM] | tumor size (HGS tumor model) [mm3] |
| --- | --- | --- |
| C=CC(=O)N1CCN(CCCn2c(=O)c(-c3c(Cl)c(OC)cc(OC)c3Cl)cc3cnc(NC)nc32)CC1 [8-(3-(4-acryloylpiperazin-1-yl)propyl)-6-(2,6-dichloro-3,5-dimethoxyphenyl)-2-(methylamino)pyrido[2,3-d]pyrimidin-7(8H)-one] | – | 55 |
| O=P(O)(O)c1ccc(Cn2cnc3nc(O)ccc32)cc1 [Compound 150, 4-((5-hydroxyimidazo[4,5-b]pyridin-1-yl)methyl)phenylphosphonic acid] | < 100 | – |
| OB(O)c1ccc(Cn2ccc3c(O)nccc32)cc1 [Compound 9, (4-((4-hydroxy-1H-pyrrolo[3,2-c]pyridin-1-yl)methyl)phenyl)boronic acid] | < 10 | – |

Now from value to compound, other results behind:

| Ki (ENPP1) [nM] | Compound | tumor size (HGS tumor model) [mm3] |
| --- | --- | --- |
| < 10 | Cc1nc2cc(C(N)=O)ccc2n1Cc1ccc(B(O)O)cc1 [Compound 36, (4-((5-carbamoyl-2-methyl-1H-benzo[d]imidazol-1-yl)methyl)phenyl)boronic acid] | – |
| < 100 | COc1cccc2c1nc(C)n2Cc1ccc(B(O)O)cc1 [Compound 95, 4-((4-methoxy-2-methyl-1,3-benzodiazol-1-yl)methyl) phenylboronic acid] | – |
